Data reported in US10556914B2, “Substituted isoxazolopyridazinones and isothiazolopyridazinones and methods of use” (AbbVie Inc., priority 2015, dated 2020).

The compounds below were run against GABA-B receptor (Rattus norvegicus (Rat), UniProt O88871+Q9Z0U4) (assay: [35S]GTPgS Binding Assay (rat brain cortex membranes, native receptor)). Details: rat cortical membranes; in the presence of 1 μM GABA (EC25); basal binding 0%, maximal binding (1 mM GABA) 100%.
Sequence of GABA-B receptor (Q9Z0U4 17-960): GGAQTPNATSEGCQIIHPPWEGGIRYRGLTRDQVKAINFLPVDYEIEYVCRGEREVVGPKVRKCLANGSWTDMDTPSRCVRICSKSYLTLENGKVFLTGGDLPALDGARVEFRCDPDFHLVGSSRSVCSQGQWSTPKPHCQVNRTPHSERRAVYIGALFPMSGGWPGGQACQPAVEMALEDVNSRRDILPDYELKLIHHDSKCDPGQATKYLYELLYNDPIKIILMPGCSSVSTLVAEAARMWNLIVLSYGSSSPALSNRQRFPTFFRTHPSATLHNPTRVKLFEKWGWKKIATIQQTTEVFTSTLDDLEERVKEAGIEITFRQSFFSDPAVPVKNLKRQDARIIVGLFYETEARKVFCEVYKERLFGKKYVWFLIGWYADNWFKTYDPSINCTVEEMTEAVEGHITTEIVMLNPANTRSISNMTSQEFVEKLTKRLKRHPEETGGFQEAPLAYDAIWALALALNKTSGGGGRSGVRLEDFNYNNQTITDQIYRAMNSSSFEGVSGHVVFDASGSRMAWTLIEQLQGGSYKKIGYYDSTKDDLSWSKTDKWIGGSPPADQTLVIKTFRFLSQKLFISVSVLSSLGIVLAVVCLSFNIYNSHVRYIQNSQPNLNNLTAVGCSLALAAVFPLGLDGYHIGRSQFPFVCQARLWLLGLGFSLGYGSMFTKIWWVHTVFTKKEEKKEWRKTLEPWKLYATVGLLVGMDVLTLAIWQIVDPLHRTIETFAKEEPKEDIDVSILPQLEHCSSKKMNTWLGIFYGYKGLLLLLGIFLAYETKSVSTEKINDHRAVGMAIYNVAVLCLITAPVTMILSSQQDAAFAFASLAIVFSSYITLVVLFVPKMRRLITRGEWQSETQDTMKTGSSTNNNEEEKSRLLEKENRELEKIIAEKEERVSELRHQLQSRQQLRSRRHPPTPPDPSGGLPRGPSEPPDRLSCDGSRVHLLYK
Sequence of GABA-B receptor (O88871 41-940): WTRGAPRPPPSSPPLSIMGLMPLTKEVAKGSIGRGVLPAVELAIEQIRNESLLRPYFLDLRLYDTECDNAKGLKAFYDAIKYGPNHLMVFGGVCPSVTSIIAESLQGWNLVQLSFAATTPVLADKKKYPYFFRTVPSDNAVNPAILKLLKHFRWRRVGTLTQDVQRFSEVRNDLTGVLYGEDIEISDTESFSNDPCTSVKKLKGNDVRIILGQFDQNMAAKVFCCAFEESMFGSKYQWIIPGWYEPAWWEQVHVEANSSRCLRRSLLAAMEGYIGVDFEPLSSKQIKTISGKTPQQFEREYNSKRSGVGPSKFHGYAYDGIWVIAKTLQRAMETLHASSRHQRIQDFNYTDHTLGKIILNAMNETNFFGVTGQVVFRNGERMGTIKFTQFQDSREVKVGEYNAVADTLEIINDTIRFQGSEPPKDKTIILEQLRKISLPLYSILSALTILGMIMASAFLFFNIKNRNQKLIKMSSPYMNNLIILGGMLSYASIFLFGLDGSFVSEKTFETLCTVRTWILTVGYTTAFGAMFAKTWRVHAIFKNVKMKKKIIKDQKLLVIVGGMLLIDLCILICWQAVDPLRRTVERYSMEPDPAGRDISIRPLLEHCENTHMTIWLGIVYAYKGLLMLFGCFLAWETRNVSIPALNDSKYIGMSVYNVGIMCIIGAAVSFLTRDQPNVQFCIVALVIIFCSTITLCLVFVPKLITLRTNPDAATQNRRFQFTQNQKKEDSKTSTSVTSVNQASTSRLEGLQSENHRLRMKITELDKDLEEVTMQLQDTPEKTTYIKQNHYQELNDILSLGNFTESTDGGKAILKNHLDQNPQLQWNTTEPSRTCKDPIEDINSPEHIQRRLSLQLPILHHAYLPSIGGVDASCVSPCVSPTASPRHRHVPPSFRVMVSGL
Assay type: biochemical
CC(=O)Nc1cccc(-c2nn(Cc3ccc(Cl)cc3)c(=O)c3c(C)noc23)c1 [Example 70, N-{3-[5-(4-chlorobenzyl)-3-methyl-4-oxo-4,5-dihydro[1,2]oxazolo[4,5-d]pyridazin-7-yl]phenyl}acetamide] showed an EC50 of 935 nM.
In the case of CC(=O)Nc1cccc(-c2nn(Cc3ccc(Cl)cc3)c(=O)c3c(C4CC4)noc23)c1 [Example 51, N-{3-[5-(4-chlorobenzyl)-3-cyclopropyl-4-oxo-4,5-dihydro[1,2]oxazolo[4,5-d]pyridazin-7-yl]phenyl}acetamide], the EC50 is reported as 1500 nM.
COc1ccc(-c2nn(Cc3ccc(F)c(C(F)(F)F)c3)c(=O)c3c(C)noc23)c(OC)c1 [Example 37, 7-(2,4-dimethoxyphenyl)-5-[4-fluoro-3-(trifluoromethyl)benzyl]-3-methyl[1,2]oxazolo[4,5-d]pyridazin-4(5H)-one] was tested, and the EC50 was 3670 nM.
Cc1noc2c(-c3cc(Cl)ccc3N)nn(C(C)c3ccc(Cl)cc3)c(=O)c12 (centres unmarked) [Example 6, 7-(2-amino-5-chlorophenyl)-5-[1-(4-chlorophenyl)ethyl]-3-methyl[1,2]oxazolo[4,5-d]pyridazin-4(5H)-one] showed an EC50 of 1960 nM.
Work on Cc1noc2c(-c3cc(F)cc(F)c3N)nn(C(C)c3ccc(Cl)cc3)c(=O)c12 (centres unmarked) [Example 77, 7-(2-amino-3,5-difluorophenyl)-5-[1-(4-chlorophenyl)ethyl]-3-methyl[1,2]oxazolo[4,5-d]pyridazin-4(5H)-one] yielded an EC50 of 2480 nM.
CCCc1noc2c(-c3cc(OC)ccc3OC)nn(Cc3ccc(Cl)cc3)c(=O)c12 [Example 52, 5-(4-chlorobenzyl)-7-(2,5-dimethoxyphenyl)-3-propyl[1,2]oxazolo[4,5-d]pyridazin-4(5H)-one] gave an EC50 of over 10000 nM.
COc1ccccc1-c1nn(Cc2ccc(F)c(C(F)(F)F)c2)c(=O)c2c(C)noc12 [Example 54, 5-[4-fluoro-3-(trifluoromethyl)benzyl]-7-(2-methoxyphenyl)-3-methyl[1,2]oxazolo[4,5-d]pyridazin-4(5H)-one] was tested, and the EC50 was 1200 nM.
Compound COc1ccccc1-c1nn(Cc2cc(C(F)(F)F)ccc2F)c(=O)c2c(C)noc12 [Example 46, 5-[2-fluoro-5-(trifluoromethyl)benzyl]-7-(2-methoxyphenyl)-3-methyl[1,2]oxazolo[4,5-d]pyridazin-4(5H)-one] has an EC50 of 2290 nM.
In the case of Cc1nn(CCc2ccc(Cl)cc2)c(=O)c2c(C)noc12 [Example 60, 5-[2-(4-chlorophenyl)ethyl]-3,7-dimethyl[1,2]oxazolo[4,5-d]pyridazin-4(5H)-one], the EC50 is reported as over 10000 nM.
In the case of Cc1noc2c(-c3ccc(F)c(F)c3)nn(Cc3ccc(Cl)cc3)c(=O)c12 [Example 42, 5-(4-chlorobenzyl)-7-(3,4-difluorophenyl)-3-methyl[1,2]oxazolo[4,5-d]pyridazin-4(5H)-one], the EC50 is reported as 9640 nM.
Cc1noc2c(-c3cccc(S(N)(=O)=O)c3)nn(C(C)c3ccc(Cl)cc3)c(=O)c12 (centres unmarked) [Example 53, 3-{5-[1-(4-chlorophenyl)ethyl]-3-methyl-4-oxo-4,5-dihydro[1,2]oxazolo[4,5-d]pyridazin-7-yl}benzenesulfonamide] gave an EC50 of 620 nM.
